System: LPS-induced release of TNFα from PBMCs from patients suffering from rheumatoid arthritis
Assay: ELISA-based TNFα release assay, PBMCs from RA-patients
Format: cell-based
Details: Homo sapiens, PBMC; chimeric antibodies (CHO) 1 μg/ml; Batimastat 10 μM; LPS 1 ng/ml, 1.5 hours
Experimental: In contrast to Example 32, where the inhibitory effects of the antibodies of the present disclosure on LPS-induced release of endogenous TNFα from primary human material obtained from healthy donors using peripheral blood mononuclear cells (PBMCs) were tested, this analysis was conducted to analyze the inhibitory effects of the antibodies of the present disclosure on LPS-induced release of endogenous TNFα from primary human material obtained from patients suffering from rheumatoid arthritis (RA-patients).
In brief, on day 1, Nunc black MaxiSorp® 96-well plates (Thermo Fisher Scientific, USA) were coated overnight with 100 μl per well of mouse anti-human TNFα capture antibody (provided as part of the DuoSet ELISA kit) at 4 μg/ml TBS at 4° C. On day 2, the capture antibody solution was removed and MaxiSorp® plates were blocked with 300 μl per well of TBS, 1% BSA at room temperature for 3 hours. […] Using an infinite M1000 (Tecan Group, Switzerland) microplate reader, the fluorescence of each well was collected at an excitation wavelength of 435 nm and an emission wavelength of 555 nm.

CNC(=O)[C@H](Cc1ccccc1)NC(=O)[C@H](CC(C)C)[C@H](CSc1cccs1)C(=O)NO [Batimastat]
inhibition at 10 µM: 99.9%
